Experimental data as given in patent publication US8476197B2, “Aminopropenoates as fungicides” (priority 2009, dated 2013).
Marks after values point to notes of the source that are not given here.

Settings: pH 2.7

Row | SMILES | Log P
1 | CCOC(=O)C(C#N)=C(NC(C)c1ccccn1)c1ccsc1Br (stereo not shown) [Compound 116] | 3.1^[a]
2 | CCOC(=O)C(C#N)=C(NC(C)C1CCCO1)c1cc(C)oc1C (stereo not shown) [Compound 118] | 3.27^[a]
3 | CCOC(=O)C(C#N)=C(NC1CCCCNC1=O)c1cc(C)oc1C (stereo not shown) [Compound 119] | 2.14^[a]
4 | COC(=O)C(C#N)=C(NC1COC1)c1cccnc1Cl [Compound 120] | 1.35^[a]
5 | COC(=O)C(C#N)=C(NC(CN1CCOCC1)C1CC1)c1cccnc1Cl (stereo not shown) [Compound 121] | 1.38^[a]
6 | COC(=O)C(C#N)=C(NC1CSC1)c1cccnc1Cl [Compound 122] | 2.08^[a]
7 | COC(=O)C(C#N)=C(NC1CCCCNC1=O)c1cccnc1Cl (stereo not shown) [Compound 123] | 1.57^[a]
8 | COC(=O)C(C#N)=C(NC(C)c1ncc(Br)cc1Cl)c1cccnc1Cl (stereo not shown) [Compound 124] | 3.24^[a]
9 | COC(=O)C(C#N)=C(NC1CCS(=O)(=O)C1)c1cccnc1Cl (stereo not shown) [Compound 125] | 1.33^[a]
10 | COC(=O)C(C#N)=C(NC(C)C1CCCO1)c1cccnc1Cl (stereo not shown) [Compound 126] | 2.17^[a]
11 | COC(=O)C(C#N)=C(NCc1nccs1)c1sc(C)nc1C(F)(F)F [Compound 132] | 2.33^[a]
12 | COC(=O)C(C#N)=C(NCc1ccccn1)c1sc(C)nc1C(F)(F)F [Compound 134] | 2.37^[a]
13 | CCOC(=O)C(C#N)=C(NCc1nccs1)c1cn(C)nc1C(F)(F)F [Compound 138] | 2.43^[a]
14 | CCOC(=O)C(C#N)=C(NCc1ccccn1)c1cn(C)nc1C(F)(F)F [Compound 139] | 2.36^[a]
15 | CCOC(=O)C(C#N)=C(NCc1nccs1)c1sc(C)nc1C(F)(F)F [Compound 141] | 2.66^[a]
16 | CCOC(=O)C(C#N)=C(NCc1ccccn1)c1sc(C)nc1C(F)(F)F [Compound 144] | 2.7^[a]
17 | CCOC(=O)/C(C#N)=C(\NC(C)c1nccs1)c1sccc1Cl (stereo not shown) [Compound 149] | 3.09^[a]
18 | CCOC(=O)/C(C#N)=C(\NC(C)c1nc(C)c(C)s1)c1sccc1Cl (stereo not shown) [Compound 150] | 3.76^[a]
19 | CCOC(=O)/C(C#N)=C(\NC(C)Cc1c[nH]c2ccccc12)c1sccc1Cl (stereo not shown) [Compound 151] | 3.8^[a]
20 | CCOC(=O)/C(C#N)=C(\NCc1nccs1)c1sccc1Cl [Compound 153] | 2.63^[a]
21 | CCOC(=O)C(C#N)=C(NCc1ccccn1)c1c(C(F)F)nn(C)c1Cl [Compound 155] | 2.37^[a]
22 | CCOC(=O)C(C#N)=C(NCc1ccccn1)c1sccc1Cl [Compound 159] | 2.56^[a]
23 | CCOC(=O)C(C#N)=C(NCc1nccs1)c1ccsc1I [Compound 161] | 2.68^[a]
24 | CCOC(=O)C(C#N)=C(NCc1ccccn1)c1ccsc1I [Compound 166] | 2.56^[a]
25 | CCOC(=O)C(C#N)=C(NCc1nc2ccccc2s1)c1sccc1Br [Compound 170] | 3.53^[a]
26 | CCOC(=O)C(C#N)=C(NCc1nc(C(F)(F)F)cs1)c1sccc1Br [Compound 171] | 3.37^[a]
27 | CCOC(=O)C(C#N)=C(NCc1nc(C)cs1)c1sccc1C(F)(F)F [Compound 175] | 3.11^[a]

Row | SMILES | Log P
28 | CCOC(=O)C(C#N)=C(NCc1nc2ccccc2s1)c1sccc1C(F)(F)F [Compound 176] | 3.67^[a]
29 | CCOC(=O)C(C#N)=C(NCc1nc(C(F)(F)F)cs1)c1sccc1C(F)(F)F [Compound 177] | 3.51^[a]
30 | COC(=O)C(C#N)=C(NCc1nc(C)cs1)c1sc(C)nc1C(F)(F)F [Compound 181] | 2.58^[a]
31 | COC(=O)C(C#N)=C(NCc1ncc(C)s1)c1sc(C)nc1C(F)(F)F [Compound 183] | 2.63^[a]
32 | COC(=O)C(C#N)=C(NCc1nc2ccccc2s1)c1sc(C)nc1C(F)(F)F [Compound 184] | 3.15^[a]
33 | COC(=O)C(C#N)=C(NCc1nc(C(F)(F)F)cs1)c1sc(C)nc1C(F)(F)F [Compound 185] | 3.06^[a]
34 | CCOC(=O)C(C#N)=C(NC(C)c1nc(C)cs1)c1cn(C)nc1C(F)F (stereo not shown) [Compound 188] | 2.65^[a]
35 | CCOC(=O)C(C#N)=C(NCc1nc(C)cs1)c1cn(C)nc1C(F)F [Compound 189] | 2.3^[a]
36 | CCOC(=O)C(C#N)=C(NC(C)c1ncc(C)s1)c1cn(C)nc1C(F)F (stereo not shown) [Compound 190] | 2.68^[a]
37 | CCOC(=O)C(C#N)=C(NCc1nc2ccccc2s1)c1cn(C)nc1C(F)F [Compound 191] | 2.82^[a]
38 | CCOC(=O)C(C#N)=C(NCc1nc(C(F)(F)F)cs1)c1cn(C)nc1C(F)F [Compound 192] | 2.78^[a]
39 | CCOC(=O)C(C#N)=C(NC(C)C1CCCO1)c1sc(C)nc1C(F)(F)F (stereo not shown) [Compound 193] | 3.29^[a]
40 | CCOC(=O)C(C#N)=C(NC(C)c1nc(C)cs1)c1sc(C)nc1C(F)(F)F (stereo not shown) [Compound 194] | 3.42^[a]
41 | CCOC(=O)C(C#N)=C(NCc1nc(C)cs1)c1sc(C)nc1C(F)(F)F [Compound 195] | 2.9^[a]
42 | COC(=O)C(C#N)=C(NC(C)c1cccs1)c1sc(C)nc1C(F)(F)F (stereo not shown) [Compound 210] | 3.46^[a]
43 | CCOC(=O)C(C#N)=C(NC(C)c1cccs1)c1sc(C)nc1C(F)(F)F (stereo not shown) [Compound 212] | 3.8^[a]
44 | CCOC(=O)C(C#N)=C(NC(C)c1cccs1)c1cn(C)nc1C(F)F (stereo not shown) [Compound 213] | 3.02^[a]
45 | CC(C)NC(=O)C(C#N)=C(NC(C)c1nccs1)c1sccc1Br (stereo not shown) [Compound 214] | 3.11^[a]
46 | CCOC(=O)C(C#N)=C(NC(C)c1ncc(C)s1)c1sccc1C(F)(F)F (stereo not shown) [Compound 216] | 3.67^[a]
47 | CCOC(=O)C(C#N)=C(NCc1ncc(C)s1)c1sccc1C(F)(F)F [Compound 217] | 3.19^[a]
48 | CCOC(=O)C(C#N)=C(NCc1ncc(C)s1)c1sc(C)nc1C(F)(F)F [Compound 219] | 3^[a]
49 | CCOC(=O)C(C#N)=C(NCc1nccs1)c1c(C(F)F)nn(C)c1Cl [Compound 236] | 2.4^[a]
50 | CCOC(=O)C(C#N)=C(NCc1ncc(C)s1)c1ccsc1Br [Compound 247] | 3^[a]
51 | CCOC(=O)C(C#N)=C(NCc1nccs1)c1ccncc1Cl [Compound 259] | 2.11^[a]
52 | CCOC(=O)C(C#N)=C(NC1(c2ccccn2)CC1)c1cccnc1Cl [Compound 284] | 2.56^[a]
53 | C=CCOC(=O)C(C#N)=C(NCc1nccs1)c1cn(C)nc1C(F)F [Compound 306] | 2.25^[a]
54 | CCOC(=O)C(C#N)=C(NC(C)c1nccs1)c1cn(C)nc1C(C)(F)F (stereo not shown) [Compound 312] | 2.62^[a]

Results, then the compound that gave them:

Row | Log P | SMILES
55 | 3.46^[a] | CCOC(=O)C(C#N)=C(NC(C)c1ncc(C)s1)c1sc(C)nc1C(F)(F)F (stereo not shown) [Compound 196]
56 | 3.48^[a] | CCOC(=O)C(C#N)=C(NCc1nc2ccccc2s1)c1sc(C)nc1C(F)(F)F [Compound 197]
57 | 3.35^[a] | CCOC(=O)C(C#N)=C(NCc1nc(C(F)(F)F)cs1)c1sc(C)nc1C(F)(F)F [Compound 198]
58 | 2.58^[a] | CCOC(=O)C(C#N)=C(NC(C)C1CCCO1)c1cn(C)nc1C(F)F (stereo not shown) [Compound 199]
59 | 3.04^[a] | CCOC(=O)C(C#N)=C(NCc1ccc(F)cn1)c1sccc1Br [Compound 200]
60 | 3.19^[a] | CCOC(=O)C(C#N)=C(NCc1ccc(F)cn1)c1sccc1C(F)(F)F [Compound 201]
61 | 2.67^[a] | COC(=O)C(C#N)=C(NCc1ccc(F)cn1)c1sc(C)nc1C(F)(F)F [Compound 202]
62 | 2.33^[a] | CCOC(=O)C(C#N)=C(NCc1ccc(F)cn1)c1cn(C)nc1C(F)F [Compound 203]
63 | 2.98^[a] | CCOC(=O)C(C#N)=C(NCc1ccc(F)cn1)c1sc(C)nc1C(F)(F)F [Compound 204]
64 | 3.31^[a] | C=CCOC(=O)C(C#N)=C(NC(C)c1nccs1)c1sccc1Br (stereo not shown) [Compound 205]
65 | 3.02^[a] | CCOC(=O)C(C#N)=C(NC(C)c1nccs1)c1nc(Cl)ccc1Cl (stereo not shown) [Compound 208]
66 | 3.99^[a] | CCOC(=O)C(C#N)=C(NC(C)c1cccs1)c1sccc1C(F)(F)F (stereo not shown) [Compound 209]
67 | 3.92^[a] | CCOC(=O)C(C#N)=C(NC(C)c1cccs1)c1sccc1Br (stereo not shown) [Compound 211]
68 | 3.23^[a] | CCOC(=O)C(C#N)=C(NC(C)c1sc(C)nc1C)c1sccc1Br (stereo not shown) [Compound 215]
69 | 3.13^[a] | CCOC(=O)C(C#N)=C(NC(C)c1sc(C)nc1C)c1sc(C)nc1C(F)(F)F (stereo not shown) [Compound 218]
70 | 3.04^[a] | CCOC(=O)C(C#N)=C(NCc1ncc(C)s1)c1sccc1Br [Compound 220]
71 | 2.6^[a] | CCOC(=O)C(C#N)=C(NCc1nccs1)c1nc(Cl)ccc1Cl [Compound 226]
72 | 2.68^[a] | CCOC(=O)C(C#N)=C(NCc1nccs1)c1cnc(Cl)cc1Cl [Compound 227]
73 | 2.7^[a] | CCOC(=O)C(C#N)=C(NCc1nccs1)c1ncc(Cl)cc1Cl [Compound 228]
74 | 2.94^[a] | CCOC(=O)C(C#N)=C(NCc1nc(C)cs1)c1ccsc1Br [Compound 246]
75 | 3.55^[a] | CCOC(=O)C(C#N)=C(NCc1nc2ccccc2s1)c1ccsc1Br [Compound 248]
76 | 3.42^[a] | CCOC(=O)C(C#N)=C(NCc1nc(C(F)(F)F)cs1)c1ccsc1Br [Compound 249]
77 | 3.04^[a] | CCOC(=O)C(C#N)=C(NCc1ccc(F)cn1)c1ccsc1Br [Compound 251]
78 | 2.4^[a] | CCOC(=O)C(C#N)=C(NCc1nccs1)c1cnccc1C(F)(F)F [Compound 272]
79 | 1.9^[a] | CCOC(=O)C(C#N)=C(Nc1cccnc1O)c1cccnc1Cl [Compound 286]
80 | 1.45^[a] | CCOC(=O)C(C#N)=C(Nc1ccncc1C)c1cccnc1Cl [Compound 293]
81 | 3.2^[a] | CCOC(=O)C(C#N)=C(NC(C)c1nccs1)c1c(C(F)(F)F)nn(C)c1Cl (stereo not shown) [Compound 311]
82 | 3.24^[a] | CCOC(=O)C(C#N)=C(NC(C)c1ccccn1)c1c(C(F)(F)F)nn(C)c1Cl (stereo not shown) [Compound 314]

Same assay, conditions: pH 7.5

Row | Log P | SMILES
83 | 3.66 | CCOC(=O)C(C#N)=C(NC(C)Cn1nc(C(F)(F)C(F)(F)F)nc1SC)c1cccnc1Cl (stereo not shown) [Compound 127]
84 | 1.1 | CCOC(=O)C(C#N)=C(NC(C)c1nc(C(=O)O)cs1)c1cccnc1Cl (stereo not shown) [Compound 244]

Row | SMILES | Log P
85 | CCOC(=O)C(C#N)=C(NC(C)c1nc(C(=O)OCC)cs1)c1cccnc1Cl (stereo not shown) [Compound 241] | 2.7
